Patent US20260176285A1, “SALT OF DIOXANE QUINOLINE COMPOUND, CRYSTAL FORM THEREOF, PREPARATION METHODS THEREFOR AND USES THEREOF” (Beijing Scitech-MQ Pharmaceuticals Limited, priority 2022, published 2026)

Assays:
[1] = system: human lung cancer cells EBC-1; experiment: Efficacy in nude mouse tumor-bearing model of human lung cancer cells EBC-1; format: in vivo, Balb/c nude mouse
Text: In this assay, the free compound of formula (I) of the present application and different salts of the compound prepared in Examples 1, 2 and 5 were orally administered to a nude mouse tumor-bearing model of human lung cancer cells EBC-1 to study their effects on tumor growth.
Preparation of test compounds: an appropriate weight of the test compound (including the free form of the compound of formula (I) and different salts of the compound prepared in Examples 1, 2 and 5) was weighed, completely suspended/dissolved in an appropriate volume of 0.1% sodium carboxymethyl cellulose, stirred and vortexed to give a uniform solution or suspension.
Methods: All assays were authorized by the Animal Welfare Committee. EBC-1 in the logarithmic growth phase was inoculated into immune-deficient nude mice (BALB/c nude, female, 6-8 weeks old, weighing 18±2 g), subcutaneously on the right back, with a cell inoculation amount of 5×10^6/mouse. After the tumor grew to 150-200 mm^3, the animals were randomly divided into groups, 6 mice per group. The dose of each test substance was set at 15 mg/kg and 7.5 mg/kg (both based on the concentration of the effective formula (I) compound), and administered once a day for about 3 weeks. The test compounds were freshly prepared each day before use. During the assay, the tumor diameter was measured twice a week, and the mice were weighed at the same time. The calculation formula of tumor volume (TV) is: TV=1/2×a×b^2, where a and b represent length and width, respectively. The relative tumor volume (RTV) was calculated based on the measurement results, and the calculation formula is: RTV=Vt/V0, wherein V0 is the tumor volume measured at the time of cage grouping and dosing initiation (i.e., d0), and Vt is the tumor volume at each measurement. The evaluation index of antitumor activity is the relative tumor proliferation rate T/C (%), calculated as follows: T/C (%)=(TRTV/CRTV)×100%, TRTV: RTV of the treatment group; CRTV: RTV of the negative control group. T and C represent the average tumor volume at a certain time point in the drug administration group and the control group, respectively.

[2] = Hygroscopicity by dynamic moisture sorption (DVS); format: physicochemical; settings: DVS, listed as p-Toluenesulfonate salt crystal form A-II
Outline: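 Mass change of salt and free-form crystal samples recorded at 25° C over a 0% RH-95% RH-0% RH cycle. Steps were 10% RH (last step 5%) with a dm/dt equilibrium criterion of 0.002%/min.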

[3] = Dynamic solubility in water, SGF, FaSSIF and FeSSIF; format: physicochemical; design: S (dynamic solubility): unit not given here; settings: listed as p-Toluenesulfonate salt crystal form A-II; for S (dynamic solubility): 37° C., feed 10 mg/mL
Outline: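 Free form and salt crystal forms tested over time in water, SGF (pH 1.8), FaSSIF (pH 6.5) and FeSSIF (pH 5.0), simulated fluids made with SIF powder. At each time point samples were centrifuged, passed through 0.45 μm PTFE, and filtrate concentration (HPLC) and pH measured.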

[4] = Solid-state stability evaluation (XRPD, HPLC); format: physicochemical; settings: for Purity / Purity/initial purity: listed as p-Toluenesulfonate salt crystal form A-II
Method: The following 6 test samples were placed under 25° C./60% RH and 40° C./75% RH conditions for 1 week, and then the physical and chemical stability of the samples was tested by XRPD and HPLC.
At the same time, after the p-toluenesulfonate salt crystal form A-II and crystal form B-III solids were placed at 80° C. for 24 hours, the physical and chemical stability of the samples were tested by XRPD and HPLC.

For `O=C(Nc1ccc(F)cc1)C1(C(=O)Nc2ccc(Oc3ccnc4cc(OCCCN5CCOCC5)c5c(c34)OCCO5)c(F)c2)CC1` [Example 2, N-(3-fluoro-4-((5-(3-morpholinopropoxy)-2,3-dihydro-[1,4]dioxano[2,3-f]quinolin-10-yl)oxy)phenyl)-N-(4-fluorophenyl)cyclopropane-1,1-dicarboxamide], the “T/C (relative tumor proliferation rate)” value ([1]; 7.5 mg/kg oral once a day, day 7) was 61.3%, the “T/C (relative tumor proliferation rate)” value ([1]; 7.5 mg/kg oral once a day, day 10) was 47.4% and the “T/C (relative tumor proliferation rate)” value ([1]; 7.5 mg/kg oral once a day, day 14) was 40.3%. For the same compound, the “T/C (relative tumor proliferation rate)” value ([1]; 7.5 mg/kg oral once a day, day 18) was 37.7%, the “T/C (relative tumor proliferation rate)” value ([1]; 7.5 mg/kg oral once a day, day 21) was 33.1% and the “T/C (relative tumor proliferation rate)” value ([1]; 15 mg/kg oral once a day, day 3) was 67.9%. For the same compound, the “T/C (relative tumor proliferation rate)” value ([1]; 15 mg/kg oral once a day, day 7) was 37.3%, the “T/C (relative tumor proliferation rate)” value ([1]; 15 mg/kg oral once a day, day 10) was 25.4% and the “T/C (relative tumor proliferation rate)” value ([1]; 15 mg/kg oral once a day, day 14) was 17.5%. For the same compound, the “T/C (relative tumor proliferation rate)” value ([1]; 15 mg/kg oral once a day, day 18) was 16.0%, the “T/C (relative tumor proliferation rate)” value ([1]; 15 mg/kg oral once a day, day 21) was 12.09% and the “Moisture adsorption (25° C./80% RH)” value ([2]; 25° C./80% RH) was 0.52%. For the same compound, the Hygroscopicity ([2]; 25° C.) was “Slightly”, the “S (dynamic solubility)” value ([3]; FaSSIF, 1 hour) was 0.073 and the “pH of the filtrate” value ([3]; FaSSIF, 1 hour) was 6.1. The “S (dynamic solubility)” value ([3]; FaSSIF, 2 hours) was 0.066, the “pH of the filtrate” value ([3]; FaSSIF, 2 hours) was 6.1 and the “S (dynamic solubility)” value ([3]; FaSSIF, 4 hours) was 0.059. For the same compound, the “pH of the filtrate” value ([3]; FaSSIF, 4 hours) was 6.1, the “S (dynamic solubility)” value ([3]; FaSSIF, 24 hours) was 0.072 and the “pH of the filtrate” value ([3]; FaSSIF, 24 hours) was 5.1. The “S (dynamic solubility)” value ([3]; FeSSIF, 1 hour) was 1.8, the “pH of the filtrate” value ([3]; FeSSIF, 1 hour) was 5.0 and the “S (dynamic solubility)” value ([3]; FeSSIF, 2 hours) was 2.0. The “pH of the filtrate” value ([3]; FeSSIF, 2 hours) was 5.0, the “S (dynamic solubility)” value ([3]; FeSSIF, 4 hours) was 1.5 and the “pH of the filtrate” value ([3]; FeSSIF, 4 hours) was 5.0. For the same compound, the “S (dynamic solubility)” value ([3]; FeSSIF, 24 hours) was 0.84, the “pH of the filtrate” value ([3]; FeSSIF, 24 hours) was 5.0 and the “S (dynamic solubility)” value ([3]; H2O, 1 hour) was 2.7. For the same compound, the “pH of the filtrate” value ([3]; H2O, 1 hour) was 4.8, the “S (dynamic solubility)” value ([3]; H2O, 2 hours) was 2.7 and the “pH of the filtrate” value ([3]; H2O, 2 hours) was 4.9. The “S (dynamic solubility)” value ([3]; H2O, 4 hours) was 2.8, the “pH of the filtrate” value ([3]; H2O, 4 hours) was 4.7 and the “S (dynamic solubility)” value ([3]; H2O, 24 hours) was 2.5. For the same compound, the “pH of the filtrate” value ([3]; H2O, 24 hours) was 4.2, the “S (dynamic solubility)” value ([3]; SGF, 1 hour) was 6.8 and the “pH of the filtrate” value ([3]; SGF, 1 hour) was 2.3. For the same compound, the “S (dynamic solubility)” value ([3]; SGF, 2 hours) was “completely dissolved”, the “S (dynamic solubility)” value ([3]; SGF, 4 hours) was “completely dissolved” and the “S (dynamic solubility)” value ([3]; SGF, 24 hours) was 6.3. For the same compound, the “pH of the filtrate” value ([3]; SGF, 24 hours) was 2.3, the Purity ([4]; 25° C./60% RH, 1 week) was 99.52 area % and the Purity/initial purity ([4]; 25° C./60% RH, 1 week) was 100.1%. For the same compound, the Purity/initial purity ([4]; 40° C./75% RH, 1 week) was 100.0%, the “Change of Crystal form” value ([4]; 80° C., 24 hours) was “no” and the Purity ([4]; 80° C., 24 hours) was 99.42 area %.
